This passage reports IC50 results from patent publication US11306064B2, “Benzothia(di)azepine compounds and their use as bile acid modulators” (Albireo AB, priority 2018, dated 2022).

As a reminder, the IC50 is the concentration that gives 50% inhibition.

What all share (format): cell-based
The target in test [1] is T1, Human ASBT (Homo sapiens, UniProt Q12908).
T1 construct: expressed in transfected cells; kept under Puromycin selection
T1 sequence (Q12908 1-348): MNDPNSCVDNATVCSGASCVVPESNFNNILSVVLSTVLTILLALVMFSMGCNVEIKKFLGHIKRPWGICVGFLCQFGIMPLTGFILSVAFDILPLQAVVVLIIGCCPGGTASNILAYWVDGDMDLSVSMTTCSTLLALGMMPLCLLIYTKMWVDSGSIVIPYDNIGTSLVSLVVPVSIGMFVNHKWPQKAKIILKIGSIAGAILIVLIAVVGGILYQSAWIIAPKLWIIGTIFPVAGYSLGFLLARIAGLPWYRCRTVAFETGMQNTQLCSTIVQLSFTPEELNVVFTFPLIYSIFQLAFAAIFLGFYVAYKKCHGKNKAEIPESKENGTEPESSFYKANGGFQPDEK
Briefly: ASBT (h/m) assay: 3H-taurocholic acid uptake in human ASBT-overexpressing cells. The note with it: 0.25 μM 3H-taurocholic acid and 5 μM cold taurocholic acid, 20 minutes, read-out: hASBT IC50. Put shortly: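 ASBT-overexpressing cells, seeded 48 h earlier, took up 0.25 µM 3H-taurocholic acid plus 5 µM cold taurocholate for 20 min at 37 °C with inhibitor (10-point 3-fold series, top 10 µM, 0.2% DMSO). Ice stop, washes with cold 1 mM taurocholate in HEPES-HBSS pH 7.4, scintillation counting.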

For test [2], the target named is T2, Human LBAT (Homo sapiens, UniProt Q14973).
T2 construct: expressed in transfected cells; kept under Geneticin selection
T2 sequence (Q14973 1-349): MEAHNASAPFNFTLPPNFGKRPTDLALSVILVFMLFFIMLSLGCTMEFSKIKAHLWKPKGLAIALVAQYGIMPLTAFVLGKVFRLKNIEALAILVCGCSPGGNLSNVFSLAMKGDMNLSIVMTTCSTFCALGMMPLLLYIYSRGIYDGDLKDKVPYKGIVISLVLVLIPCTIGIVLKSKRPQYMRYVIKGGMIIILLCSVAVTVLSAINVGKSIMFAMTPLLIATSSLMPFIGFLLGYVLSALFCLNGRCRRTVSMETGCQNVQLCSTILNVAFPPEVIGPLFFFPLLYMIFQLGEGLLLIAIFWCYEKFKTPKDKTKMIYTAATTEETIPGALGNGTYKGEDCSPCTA
Briefly: LBAT (h/m) assay: 3H-taurocholic acid uptake in human LBAT-overexpressing cells. The note with it: 0.3 μM 3H-taurocholic acid and 7.5 μM cold taurocholic acid, 20 minutes, read-out: hLBAT IC50. In outline:
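LBAT-overexpressing cells, serum-free MEM-alpha, 20 min at 37° C with inhibitor (3-fold, 10-point) plus 0.3 μM 3H-taurocholic acid and cold taurocholic acid (7.5 μM human; 25 μM mouse), 0.2% DMSO. Stopped on ice, washed with 1 mM unlabelled taurocholate; uptake by scintillation counting.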

The test system of test [3] is HepaRG cells. Kind of test: HepaRG-based assay: 3H-taurocholic acid uptake in differentiated HepaRG cells. The note with it: Homo sapiens, HepaRG, 0.3 μM 3H-taurocholic acid and 7.5 μM cold taurocholic acid, 30 minutes. Put shortly: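 Differentiated HepaRG cells cultured 7 days post-seeding were exposed for 30 min at 37 °C to 0.3 μM 3H-taurocholic acid plus 7.5 μM cold taurocholic acid with inhibitor (3-fold dilutions, 0.2% DMSO). Uptake was stopped on ice, washed with 1 mM unlabelled taurocholic acid, and counted by scintillation.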

Regarding `CCCCC1(CCCC)CN(c2ccc(NC(=O)OC(C)(C)C)cc2)c2cc(SC)c(O/C=C(\F)C(=O)O)cc2S(=O)(=O)C1` [Example 26, (Z)-3-((5-(4-((tert-butoxycarbonyl)amino)phenyl)-3,3-dibutyl-7-(methylthio)-1,1-dioxido-2,3,4,5-tetrahydro-1,5-benzothiazepin-8-yl)oxy)-2-fluoroacrylic Acid], the IC50 in test [1] was found to be 3240 nM; in test [2], 53 nM; in test [3], 477 nM.

Regarding `CCCCC1(CCCC)CN(c2ccc(NC(=O)C(C)(C)C)cc2)c2cc(SC)c(O/C=C/C(=O)O)cc2S(=O)(=O)C1` [Example 27, (E)-3-((3,3-dibutyl-7-(methylthio)-1,1-dioxido-5-(4-pivalamidophenyl)-2,3,4,5-tetrahydro-1,5-benzothiazepin-8-yl)oxy)acrylic Acid], the IC50 amounted to 4800 nM in test [1], 46 nM in test [2] and 350 nM in test [3].

Consider `CCCCC1(CCCC)CN(c2ccc(NC(=O)C(C)(C)C)cc2)c2cc(SC)c(O/C=C(\F)C(=O)O)cc2S(=O)(=O)C1` [Example 28, (Z)-3-((3,3-dibutyl-7-(methylthio)-1,1-dioxido-5-(4-pivalamidophenyl)-2,3,4,5-tetrahydro-1,5-benzothiazepin-8-yl)oxy)-2-fluoroacrylic Acid], for which the IC50 is 4450 nM in test [1], 13 nM in test [2] and 89 nM in test [3].

Take `CCCCC1(CCCC)CN(c2ccc(C(F)(F)F)cc2)c2cc(SC)c(O/C=C/C(=O)O)cc2S(=O)(=O)C1` [Example 32, (E)-3-((3,3-dibutyl-7-(methylthio)-1,1-dioxido-5-(4-(trifluoromethyl)phenyl)-2,3,4,5-tetrahydro-1,5-benzothiazepin-8-yl)oxy)acrylic Acid]: the IC50 amounted to 209 nM in test [1], 506 nM in test [2] and 672 nM in test [3].

As for `CCCCC1(CCCC)CN(c2ccc(NC(=O)C3CCCC3)cc2)c2cc(SC)c(O/C=C/C(=O)O)cc2S(=O)(=O)C1` [Example 37, (E)-3-((3,3-dibutyl-5-(4-(cyclopentanecarboxamido)phenyl)-7-(methylthio)-1,1-dioxido-2,3,4,5-tetrahydro-1,5-benzothiazepin-8-yl)oxy)acrylic Acid], the IC50 in test [1] stood at 2000 nM; in test [2] it was 45 nM; in test [3], 592 nM.

Turning to `CCC1(CC)CN(c2ccccc2)c2cc(SC)c(O/C=C/C(=O)O)cc2S(=O)(=O)C1` [Example 39, (E)-3-((3,3-diethyl-7-(methylthio)-1,1-dioxido-5-phenyl-2,3,4,5-tetrahydro-1,5-benzothiazepin-8-yl)oxy)acrylic Acid], the IC50 was found to be 796 nM in test [1], 75 nM in test [2] and 399 nM in test [3].

For the compound `CCCCC1(CCCC)CN(c2ccc(NC(=O)CCC)cc2)c2cc(SC)c(O/C=C/C(=O)O)cc2S(=O)(=O)C1` [Example 40, (E)-3-((3,3-dibutyl-5-(4-butyramidophenyl)-7-(methylthio)-1,1-dioxido-2,3,4,5-tetrahydro-1,5-benzothiazepin-8-yl)oxy)acrylic Acid], the IC50 was 4550 nM in test [1], 108 nM in test [2] and 1510 nM in test [3].

`CCCCC1(CCCC)CN(c2ccccc2)c2ccc(O/C=C(\F)C(=O)O)cc2S(=O)(=O)C1` [Example 45, (Z)-3-((3,3-dibutyl-1,1-dioxido-5-phenyl-2,3,4,5-tetrahydro-1,5-benzothiazepin-8-yl)oxy)-2-fluoroacrylic Acid]: the IC50 in test [1] was found to be 1460 nM; in test [2], 201 nM; in test [3], 3160 nM.

Take `CCCCC1(CCCC)CN(c2ccccc2)c2cc(Cl)c(O/C=C(\F)C(=O)O)cc2S(=O)(=O)C1` [Example 53, (Z)-3-((3,3-dibutyl-7-chloro-1,1-dioxido-5-phenyl-2,3,4,5-tetrahydro-1,5-benzothiazepin-8-yl)oxy)-2-fluoroacrylic Acid]: the IC50 in test [1] amounted to 280 nM; in test [2], 62 nM; in test [3], 800 nM.

For `CCC1(CC)CN(c2ccccc2)c2cc(I)c(O/C=C/C(=O)O)cc2S(=O)(=O)C1` [Example 54, (E)-3-((3,3-diethyl-7-iodo-1,1-dioxido-5-phenyl-2,3,4,5-tetrahydro-1,5-benzothiazepin-8-yl)oxy)acrylic Acid], the figures for the IC50 in test [1], in test [2] and in test [3] were 186 nM, 100 nM and 260 nM, respectively.

As to `CCC1(CC)CN(c2ccccc2)c2cc(Br)c(O/C=C/C(=O)O)cc2S(=O)(=O)C1` [Example 55, (E)-3-((7-bromo-3,3-diethyl-1,1-dioxido-5-phenyl-2,3,4,5-tetrahydro-1,5-benzothiazepin-8-yl)oxy)acrylic Acid], the IC50 was 487 nM in test [1], 100 nM in test [2] and 328 nM in test [3].

For `CCC1(CC)CN(c2ccccc2)c2cc(Br)c(O/C=C(\F)C(=O)O)cc2S(=O)(=O)C1` [Example 56, (Z)-3-((7-bromo-3,3-diethyl-1,1-dioxido-5-phenyl-2,3,4,5-tetrahydro-1,5-benzothiazepin-8-yl)oxy)-2-fluoroacrylic Acid], the IC50 in test [1] was found to be 380 nM; in test [2] it was 37 nM; in test [3], 175 nM.

Regarding `CCCCC1(CC)CN(c2ccc(C(=O)NC(C)(C)C)cc2)c2cc(SC)c(O/C=C/C(=O)O)cc2S(=O)(=O)C1` (stereo not drawn) [Example 62, (E)-3-((3-butyl-5-(4-(tert-butylcarbamoyl)phenyl)-3-ethyl-7-(methylthio)-1,1-dioxido-2,3,4,5-tetrahydro-1,5-benzothiazepin-8-yl)oxy)acrylic Acid], the half-maximal inhibitory concentration (IC50) is above 20000 nM in test [1], 235 nM in test [2] and 772 nM in test [3].

Regarding `CCC1(CC)CN(c2ccc(NCc3ccccc3)cc2)c2cc(SC)c(O/C=C(\F)C(=O)O)cc2S(=O)(=O)C1` [Example 66, (Z)-3-((5-(4-(benzylamino)phenyl)-3,3-diethyl-7-(methylthio)-1,1-dioxido-2,3,4,5-tetrahydro-1,5-benzothiazepin-8-yl)oxy)-2-fluoroacrylic Acid], the IC50 in test [1] was 2760 nM; in test [2] it was 30 nM; in test [3], 518 nM.

For the compound `CCCCC1(CCCC)CN(c2ccc(C(=O)NC(C)(C)C)cc2)c2cc(SC)c(O/C=C/C(=O)O)cc2S(=O)(=O)C1` [Example 68, (E)-3-((3,3-dibutyl-5-(4-(tert-butylcarbamoyl)phenyl)-7-(methylthio)-1,1-dioxido-2,3,4,5-tetrahydro-1,5-benzothiazepin-8-yl)oxy)acrylic Acid], the values for the IC50 in test [1], in test [2] and in test [3] were 6670 nM, 130 nM and 344 nM, respectively.

Regarding `CCCCC1(CCCC)CN(c2ccc(C(=O)NC(C)C)cc2)c2cc(SC)c(O/C=C/C(=O)O)cc2S(=O)(=O)C1` [Example 69, (E)-3-((3,3-dibutyl-5-(4-(isopropylcarbamoyl)phenyl)-7-(methylthio)-1,1-dioxido-2,3,4,5-tetrahydro-1,5-benzothiazepin-8-yl)oxy)acrylic Acid], the IC50 was above 3000 nM in test [1], 364 nM in test [2] and 630 nM in test [3].

Take `CCCCC1(CCCC)CN(c2ccccc2)c2cc(SCC)c(O/C=C(\F)C(=O)O)cc2S(=O)(=O)C1` [Example 70, (Z)-3-((3,3-dibutyl-7-(ethylthio)-1,1-dioxido-5-phenyl-2,3,4,5-tetrahydro-1,5-benzothiazepin-8-yl)oxy)-2-fluoroacrylic Acid]: the IC50 was found to be 125 nM in test [1], 81 nM in test [2] and 716 nM in test [3].

For the compound `CCCCC1(CCCC)CN(c2ccc(NC(=O)CC)cc2)c2cc(SC)c(O/C=C(\F)C(=O)O)cc2S(=O)(=O)C1` [Example 71, (Z)-3-((3,3-dibutyl-7-(methylthio)-1,1-dioxido-5-(4-propionamidophenyl)-2,3,4,5-tetrahydro-1,5-benzothiazepin-8-yl)oxy)-2-fluoroacrylic Acid], the IC50 in test [1] was above 3000 nM; in test [2] it was 47 nM; in test [3], 296 nM.
